Source: patent publication US12036190B2, “Methods and compositions for the treatment of cytoplasmic glycogen storage disorders” (Duke University, priority 2015, dated 2024)

Tests used:
autophagy = conditions: Table 4; drugs known to enhance autophagy; cited from earlier work
[1] = tested on: G6pc siRNA knockdown AML-12 cells; conditions: Oil Red O, duplicate
Source text: In brief, a wide array of drugs was selected, including those that modulate autophagy via the […] pathway, those that do so through AMPK modulation to act through mTORC1, and those using yet-undetermined pathways. Analysis of additional literature led to the selection of three concentrations of each compound to be tested in cell culture using the G6pc siRNA knockdown AML-12 mouse hepatocyte cell line model of GSD Ia as an initial screen for the drugs.
Drug concentrations were chosen based on similarity to published concentrations in either cell culture models resulting in target effects or autophagy, or in vivo extracellular fluid concentrations following animal treatments. The latter case is noted with the fluid type. Concentrations used in our in vitro AML-12 cell culture treatments are listed as the low, medium, and high concentrations that were screened.
The first test using AML-12 cells was the Oil Red 0 stain to examine the presence of lipid vacuoles in cells given the treatments.
G6pc siRNA knockdown AML-12 cells were given three different doses of each drug treatment. After 72 hours of growth, the media was changed to ketogenic media and appropriate quantities of each drug were added. This was performed in duplicate. Oil Red 0 staining was then performed and bright field images acquired at 10× magnification.
Drug treatments at three doses each were performed on G6pc siRNA knockdown AML-12 cells. Following oil red 0 staining the whole plates were evaluated visually for reductions in lipid accumulation. Treatments were performed in duplicate. —/0/+/++/+++ indicates the degree of improvement, or lipid reduction, caused by the treatment, with + indicating positive benefits.

[2] = in vivo extracellular fluid concentration; cited from earlier work
[3] = tested on: G6pc knockdown AML-12 cells; test: LC3 Western blot of drug-treated G6pc knockdown AML-12 cells; type: cell-based, mouse; conditions: 24 hours; conditions with optimal effects in the Oil Red O screen
Method: FIG. 27 illustrates LC3 Western blot of drug-treated G6pc knockdown AML-12 cells. Western blotting was performed on AML-12 cells incubated for 24 hours with the described drug conditions. LC3 was quantified and normalized against each condition's β-actin protein quantification.
In addition to Oil Red O staining, cells were analyzed via Western blots for restored LC3 expression for each drug, under the conditions that had optimal effects in the Oil Red O screen (FIG. 27). Since the Western antibody previously used successfully for rapamycin treatment LC3 blots had been discontinued by the manufacturer, we tested two alternative antibodies and chose the one from Cell Signaling Technologies because it gave the strongest signal-to-noise ratio under our experimental conditions.
Western blotting was performed on AML-12 cells incubated for 24 hours with the described drug conditions. LC3 was quantified and normalized against each condition's β-actin protein quantification.

SMILES: NC(=O)N1c2ccccc2C=Cc2ccccc21 [Carbamazepine]
- Effect (autophagy): Activated autophagy, reduced hepatosteatosis
- Lipid Reduction Scoring, High dose ([1]; high concentration of Table 6): 0
- Lipid Reduction Scoring, Low dose ([1]; low concentration of Table 6): +++
- Lipid Reduction Scoring, Medium dose ([1]; medium concentration of Table 6): +
- Published Concentration, cerebrospinal fluid [2]: 0.7 to 1.5 µg/mL
- LC3 normalized against β-actin (Western blot) [3]: increase in LC3 autophagic marker
